According to patent US20090123474A1, “COMBINATION OF ANGIOPOIETIN-2 ANTAGONIST AND OF VEGF-A, KDR AND/OR FLTL ANTAGONIST FOR TREATING CANCER” (ASTRAZENECA AB, priority 2005, published 2009):

Tests used:
Type in all cases: in vivo
[1] = test system: A431 human tumour xenografts; experiment: A431 xenograft efficacy study (Study A); details: 3.19.3 10 mg/kg 2×wk i.p., VTKI 3 mg/kg/day p.o.
Experimental: (§1) The anti-tumor activity of monoclonal antibody 3.19.3 in combination with the VTKI 4-(4-fluoro-2-methylindol-5-yloxy)-6-methoxy-7-(3-piperidinopropoxy)quinazoline was evaluated in a xenograft model of human skin epidermoid carcinoma (Study A) and in a model of colorectal cancer (Study B) by using the A431 and Colo205 cell lines respectively.
(§2) A431 and Colo205 cells were cultured in flasks as routine until the cells reached sub-confluence. Immunodeficient 6-8 week old female mice (Ncr/nu/nu) were used. The cells were harvested and suspended in Matrigel. A cell suspension containing 1 to 5×10^6 cells was injected subcutaneously into the flank of the mice. The mice were randomized into different groups, each containing 10-15 mice. When the tumour volume reached 200 mm^3, the mice were randomized in each groups and the treatments were initiated. mAb 3.19.3 10 mg/kg in saline was injected intraperitoneally, twice per week for 2 weeks. 4-(4-fluoro-2-methylindol-5-yloxy)-6-methoxy-7-(3-piperidinopropoxy)quinazoline was treated peroral daily at doses ranging from 1.5 to 6 mg/kg in water containing 1% Tween80. The dimensions of each tumor were measured twice per week. The volume of the tumor was calculated as: Volume=Length×(Width)^2×0.5 (cm^3).

[2] = test system: human Colo205 colon tumour xenografts; experiment: Colo205 xenograft efficacy study (Study B); details: 3.19.3 10 mg/kg 2×wk i.p., VTKI 6 mg/kg/day p.o.
Experimental: as §1, §2

[3] = test system: human HT29 colon tumour xenografts; experiment: HT29 xenograft efficacy study; details: AZD2171 1.5 mg/kg/day p.o. d 0-27, 3.19.3 10 mg/kg i.p. day 0, 3, 7, 10, 14, 17, 21 and 24
Experimental: The efficacy of mAb 3.19.3 in combination with AZD2171 was evaluated in human HT29 xenografts. Briefly, 5×10^6 HT29 tumour cells in 0.1 ml of serum free Roswell Park Memorial Institute (RPMI)-1640 medium were injected subcutaneously into the flanks of 60 athymic (nu/nu genotype) mice. When tumours reached a volume of 200 to 400 mm^3 (9-10 days), mice were randomized into groups (8 per group) and treatment started (day 0).
The control group (Group 1) received a daily oral (p.o.) administration of vehicle only for 28 consecutive days (day 0-27). Group 2 treatment consisted of a daily p.o. administration of AZD2171 alone at 1.5 mg/kg/administration for 28 consecutive days (day 0-27). AZD2171 was prepared as a suspension in 1% polysorbate 80 (i.e. a 1% (v/v) solution of polyoxyethylene (20) sorbitan mono-oleate in deionised water). […]
Tumour volumes (mm^3) were assessed at least twice weekly by bilateral Vernier caliper measurement and, taking length to be the longest diameter across the tumor and width the corresponding perpendicular, calculated using the formula (π/6)×(length×width)×√ (length×width). Growth inhibition from the start of treatment was assessed by comparison of the differences in tumor volume between control and treated groups. […] For all mice, the tumours were excised and weights recorded upon termination of the study.

[4] = test system: human LoVo colon tumour xenografts; details: 3.19.3 10 mg/kg 2×wk i.p., Zactima 50 mg/kg/day p.o.
Experimental: The anti-tumor activity of monoclonal antibody 3.19.3 was evaluated in the LoVo xenograft model of colorectal cancer. Briefly, LoVo cells were cultured in flasks as routine until the cells reached sub-confluence. Immunodeficient 8 week old male NCr nude mice were used. Cell suspensions containing 3×10^6 cells were injected subcutaneously into the right flank of the mice, and after the tumour volume reached 200 mm^3, the mice were randomized in groups and the treatments were initiated. mAb 3.19.3 10 mg/kg in saline was injected intraperitoneally, twice per week for 2 weeks. Zactima™ was treated peroral daily at doses ranging from 25 to 50 mg/kg in water containing 1% Tween80. The dimensions of each tumor were measured twice per week. The volume of the tumor was calculated as: Volume=Length×(Width)^2×0.5 (cm^3).

What does the source list for `COc1cc2c(Oc3ccc4[nH]c(C)cc4c3F)ncnc2cc1OCCCN1CCCCC1` [4-(4-fluoro-2-methylindol-5-yloxy)-6-methoxy-7-(3-piperidinopropoxy)quinazoline, reference compound]?
% tumor growth inhibition [1]: 69%; % inhibition [2]: 57%

With `COc1cc2c(Oc3ccc4[nH]c(C)cc4c3F)ncnc2cc1OCCCN1CCCC1` [AZD2171, reference compound] as the compound, how does the “Inhibition of Control Tumour Growth Day 28” value [3] read?
Its value is 55%.

With `COc1cc2c(Nc3ccc(Br)cc3F)ncnc2cc1OCC1CCN(C)CC1` [Zactima™, reference compound] as the compound, how does the tumour inhibition [4] read?
Its tumour inhibition is 46%.
